How the values were obtained:
[1] = system: MCF7/FasR and MCF7/FasR/Bcl-xL cells; test: GSH quantification (GSH-Glo); assay type: cell-based, human; conditions: complex 4a all doses with 458 nm irradiation; TNFα 100 ng/mL; 72 h
Procedure: ATP and glutathione (GSH) contents were measured with the Promega CellTiter-Glo (Cat#G7570) and GSH-Glo (cat#6911) luminescent assays, respectively, according to the manufacturer’s recommendations.
Figure 13 Evaluation of apoptotic biomarkers. MCF7/FasR and MCF7/FasR/Bcl-xL cells were irradiated at 458 nm in presence of the indicated concentration of complex 4a or treated with […] TNFα for 72 h. (A) Cytosolic extracts from MCF7/FasR and MCF7/FasR/Bcl-xL cells were separated by SDS-PAGE and probed with anti-PARP, anti-caspase-7 and anti-caspase-8. Migrations indicated are: full-length PARP p113, cleaved PARP p89, full-length caspase-7 and full-length caspase-8. (B) MTT, ATP and GSH assays were evaluated in duplicate samples. Data are expressed as percent (%) of untreated cells and are the means of 3 independent experiments (***, p < 0.0001, NS, not significant).

[2] = system: PARP, caspase-7 and caspase-8 processing; test: Western blot of apoptotic biomarkers; assay type: cell-based, human; conditions: 458 nm irradiation, 72 h
From the text: Its effects on apoptotic biochemical markers by Western blotting analysis in MCF7/FasR cells and its Bcl-xL-overexpressed counterpart in comparison with the apoptotic inducer TNFα were examined (Figure 13). Cleavage-mediated inactivation of DNA repair enzyme poly(ADP-ribose) polymerase (PARP) by executioner caspases (e.g., caspase-3, caspase-7) has been considered as a marker of apoptotic cell death. The treatment with TNFα was associated with the proteolytic cleavage of PARP (decreased in 113 kDa full-length, increased in apoptotic 89 kDa fragment) in MCF7/FasR cells (Figure 13A). Since the MCF7 cell line lacks caspase-3 due to the functional deletion of the CASP-3 gene, caspase-7 is the only executioner caspase in these cells, as evidenced by the decreased content in the 35 kDa full-length pro-caspase-7 observed upon TNFα treatment (Figure 13A). The upstream caspase-8 that can directly process caspase-7 (extrinsic pathway) was also activated (loss of 55 kDa full-length pro-caspase-8). […] Importantly, the overexpression of Bcl-xL had no effect on apoptotic markers, regardless of the concentration of complex 4a used, implying that a MOMP-dependent mechanism is unlikely to be involved. In parallel experiments, cell viability and quantification of ATP and GSH levels were assessed. […] The early transient elevation of cytosolic ATP level is a necessary condition for the apoptotic cell death process, followed by a drop that correlates with the time course of cell death. […]
We next evaluated the effect of the pan-caspase inhibitor z-VAD-fmk on caspase signaling. […]
Cell lysate preparation and Western blotting were carried out as previously described. […] Proteins were visualized by ECL (Clarity Western ECL Substrate, Bio-Rad, Marnes-la-Coquette, France) using anti-rabbit or anti-mouse HRP-conjugated IgG (Bio-Rad); analysis of Western blots was assessed with a ChemiDoc imaging system (Bio-Rad).
Figure 13 Evaluation of apoptotic biomarkers. […] (B) MTT, ATP and GSH assays were evaluated in duplicate samples. […]

CC(C)[n+]1ccn2[c]1[Ir-3]13([c]4ccccc4-c4cccc[n+]41)([c]1ccccc1-c1cccc[n+]13)[c]1n(cc[n+]1C(C)C)C2.F[P-](F)(F)(F)(F)F [Complex 4a]
level of reduced GSH [1]: decreased | processing of PARP, caspase-7 and caspase-8 at GI50 concentration ([2]; 50 nM, MCF7/FasR and MCF7/FasR/Bcl-xL): no processing of PARP, caspase-7 and caspase-8 were observed | processing of PARP, caspase-7 and caspase-8 at high concentration ([2]; 250 nM and 1 µM, MCF7/FasR): cleavage of PARP and processing of caspase-7 and caspase-8 | procaspase-7 expression and PARP activation ([2]; 500 nM, MCF7/FasR): significant loss of procaspase-7 expression

From PMC9861386, “N-Heterocyclic Carbene-Iridium Complexes as Photosensitizers for In Vitro Photodynamic Therapy to Trigger Non-Apoptotic Cell Death in Cancer Cells” (Molecules, 2023)
